Data set [1] relates to MDA-MB231 breast cancer cells. Put plainly: MTT in vitro cytotoxicity assay, MDA-MB231. It counts as cell-based. Particulars: for viability at 10 µM / GI50: Homo sapiens, MDA-MB-231; for viability at 10 µM: read-out: Cell viability (%) MDA-MB231. As for the experimental part: (§1) The synthesized compounds were tested against three breast tumor cell lines (MDA-MB231, SKBR-3 and MCF-7) and epithelial breast cell line (MCF-10A) by the MTT colorimetric assay.[29,30] All cells were obtained from the American Type Culture Collection. The cancerous cell lines were grown in Dulbecco's modified eagle medium (DMEM) supplemented with 10% fetal bovine serum (FBS) and 1% pen-strep antibiotic. The MCF-10A human epithelial breast cell line was grown in the complete mammary epithelial growth medium containing horse serum 5%, epithelial growth factor 20 ng mL^−1, hydrocortisone […], cholera toxin 100 ng mL^−1, insulin 10 μg mL^−1, and pen-step antibiotic.[31] For the cytotoxic assay, 20 to 75 × 10^3 cells per mL (based on the doubling time for each cell line) were seeded in 96-well plates and the plates were incubated overnight in a humidified air atmosphere at 37 °C in 5% CO2 incubator.
(§2) The cells were then treated with compounds at different concentrations. After 72 h of incubation, the MTT (0.5 mg mL^−1) was added to wells, followed by 4 h of incubation. The culture medium was then removed and DMSO (100 μL per well) was added and the absorbance values were measured at 570 nm using the multi-well Tecan NanoQuant, Infinite m200 Pro plate reader. Growth inhibitory values (GI50) were calculated using GraphPad Prism 7 (GraphPad Software, San Diego, USA) by nonlinear regression analysis. Three independent experiments were carried out and the data was expressed in mean ± standard deviation (SD). The concentration–response curves used for the GI50 calculation are available in ESI. ^†

Data set [2] relates to MCF-7 breast cancer cells. Kind of data set: MTT in vitro cytotoxicity assay, MCF-7. The note with it: Homo sapiens; for viability at 10 µM: MCF7, 10 μM, 72 h, read-out: Cell viability (%) MCF-7; for GI50: MCF7, 72 h, read-out: GI50 ± SD MCF-7. It counts as cell-based. On the procedure: as §1, §2
For data set [3], the system named is MCF-10A human epithelial breast cell line. Put plainly: MTT in vitro cytotoxicity assay, MCF-10A. The note with it: 72 h, read-out: GI50 ± SD MCF-10A. In kind it is cell-based. On the procedure:
as §1, §2

Data set [4] relates to SKBR-3 breast cancer cells. Kind of data set: MTT in vitro cytotoxicity assay, SKBR-3. Particulars: Homo sapiens; for viability at 10 µM: SK-BR-3, 10 μM, 72 h, read-out: Cell viability (%) SKBR-3; for GI50: SK-BR-3, 72 h, read-out: GI50 ± SD SKBR-3. In kind it is cell-based. On the procedure:
as §1, §2

Setting [5] is: 72 h, MTT, read-out: GI50 ± SD MDA-MB231.
Where [6] appears, read: MDA-MB231, calculated from GI50, read-out: Experimental pGI50 (converted).

Molecules are shown by their SMILES. Where two headings read alike, the source gives them in different places. A value given as a limit tells only on which side of the number the result lay.

The molecule `Cc1ccc(-c2nc(N)nc(Nc3ccc(Cl)cc3)n2)cc1` [Compound 7, N ^2-(4-Chlorophenyl)-6-(4-methylphenyl)-1,3,5-triazine-2,4-diamine] returned a melting point of 202 to 204 °C. In addition, the viability at 10 µM in data set [1] (72 h, MTT) was 51%. The GI50 in data set [1] (setting [5]) was 9.6 ± 0.2 µM. Besides, the GI50 in data set [1] (setting [6]) is 9.55 µM. Moreover, in data set [2], the viability at 10 µM came to 95% and the GI50 is more than 20 µM. Also, the GI50 in data set [3] is more than 20 µM. In addition, in data set [4], the viability at 10 µM worked out at 76% and the GI50 is more than 20 µM.
The molecule `COc1ccc(-c2nc(N)nc(Nc3ccccc3)n2)cc1` [Compound 8, 6-(4-Methoxyphenyl)-N^2-phenyl-1,3,5-triazine-2,4-diamine] yielded a melting point of 190 to 192 °C. Besides, the viability at 10 µM in data set [1] (72 h, MTT) was found to be 28%. Also, in data set [1] (setting [5]), the GI50 is 8.4 ± 0.3 µM. The GI50 in data set [1] (setting [6]) is 8.32 µM. For the same molecule, in data set [2], the viability at 10 µM stood at 85% and the GI50 was found to be 14.2 ± 1.7 µM. The GI50 in data set [3] is more than 20 µM. In data set [4], the viability at 10 µM amounted to 67% and the GI50 amounted to 19.6 ± 0.9 µM.
`COc1ccc(-c2nc(N)nc(Nc3ccc(C)cc3)n2)cc1` [Compound 9, 6-(4-Methoxyphenyl)-N^2-(4-methylphenyl)-1,3,5-triazine-2,4-diamine] returned a melting point of 186 to 188 °C. Further, in data set [1] (72 h, MTT), the viability at 10 µM stood at 32%. The GI50 in data set [1] (setting [5]) stood at 6.1 ± 0.6 µM. The GI50 in data set [1] (setting [6]) was 6.17 µM. In data set [2], the viability at 10 µM was found to be 99% and the GI50 is more than 20 µM. In data set [3], the GI50 is more than 20 µM. In data set [4], the viability at 10 µM came out at 89% and the GI50 was more than 20 µM.
In turn, `COc1cc(-c2nc(N)nc(Nc3ccccc3)n2)cc(OC)c1OC` [Compound 10, N ^2-Phenyl-6-(3,4,5-trimethoxyphenyl)-1,3,5-triazine-2,4-diamine] gave a melting point of 111 to 113 °C. The viability at 10 µM in data set [1] (72 h, MTT) is 14%. Also, the GI50 in data set [1] (setting [5]) was determined as 9.7 ± 0.6 µM. In data set [1] (setting [6]), the GI50 was 9.77 µM. In data set [2], the viability at 10 µM was found to be 62% and the GI50 is more than 20 µM. Further, the GI50 in data set [3] was more than 20 µM. In addition, in data set [4], the viability at 10 µM is 37% and the GI50 came out at 17.2 ± 0.4 µM.
For the molecule `COc1cc(-c2nc(N)nc(Nc3ccccc3F)n2)cc(OC)c1OC` [Compound 11, N ^2-(2-Fluorophenyl)-6-(3,4,5-trimethoxyphenyl)-1,3,5-triazine-2,4-diamine], the melting point lay in the range of 177 to 179 °C. The viability at 10 µM in data set [1] (72 h, MTT) is 34%. Also, in data set [1] (setting [5]), the GI50 came to 7.9 ± 0.5 µM. The GI50 in data set [1] (setting [6]) was 7.94 µM. Besides, in data set [2], the viability at 10 µM worked out at 98% and the GI50 is more than 20 µM. Also, the GI50 in data set [3] was more than 20 µM. In data set [4], the viability at 10 µM is 73% and the GI50 was more than 20 µM.
For `COc1cc(-c2nc(N)nc(Nc3ccccc3Cl)n2)cc(OC)c1OC` [Compound 12, N ^2-(2-Chlorophenyl)-6-(3,4,5-trimethoxyphenyl)-1,3,5-triazine-2,4-diamine], the melting point was 176 to 178 °C. Further, the viability at 10 µM in data set [1] (72 h, MTT) came out at 42%. Besides, the GI50 in data set [1] (setting [5]) came out at 11.3 ± 1.1 µM. In addition, in data set [1] (setting [6]), the GI50 is 11.2 µM. Further, in data set [2], the viability at 10 µM turned out to be 100% and the GI50 is more than 20 µM. The GI50 in data set [3] is more than 20 µM. Also, in data set [4], the viability at 10 µM came to 80% and the GI50 is more than 20 µM.
Take `COc1ccccc1Nc1nc(N)nc(-c2cc(OC)c(OC)c(OC)c2)n1` [Compound 13, N ^2-(2-Methoxyphenyl)-6-(3,4,5-trimethoxyphenyl)-1,3,5-triazine-2,4-diamine]: the melting point was 173 to 175 °C. Besides, the viability at 10 µM in data set [1] (72 h, MTT) was found to be 16%. Also, in data set [1] (setting [5]), the GI50 came to 2.1 ± 0.2 µM. Further, the GI50 in data set [1] (setting [6]) is 2.04 µM. Moreover, in data set [2], the viability at 10 µM was 100% and the GI50 is more than 20 µM. Also, the GI50 in data set [3] was more than 20 µM. Moreover, in data set [4], the viability at 10 µM worked out at 57% and the GI50 was determined as 14 ± 1.6 µM.
Molecule `COc1cc(-c2nc(N)nc(Nc3cccc(Cl)c3)n2)cc(OC)c1OC` [Compound 14, N ^2-(3-Chlorophenyl)-6-(3,4,5-trimethoxyphenyl)-1,3,5-triazine-2,4-diamine] returned a melting point of 193 to 195 °C. Besides, in data set [1] (72 h, MTT), the viability at 10 µM was 40%. For the same molecule, in data set [1] (setting [5]), the GI50 worked out at 9.1 ± 1.1 µM. In addition, the GI50 in data set [1] (setting [6]) is 9.12 µM. Besides, in data set [2], the viability at 10 µM was found to be 96% and the GI50 was more than 20 µM. In addition, the GI50 in data set [3] was more than 20 µM. Also, in data set [4], the viability at 10 µM was determined as 58% and the GI50 was 16.7 ± 1.4 µM.
`COc1cc(-c2nc(N)nc(Nc3cccc(C)c3)n2)cc(OC)c1OC` [Compound 15, N ^2-(3-Methylphenyl)-6-(3,4,5-trimethoxyphenyl)-1,3,5-triazine-2,4-diamine] had a melting point of 192 to 194 °C. In data set [1] (72 h, MTT), the viability at 10 µM is 14%. For the same molecule, in data set [1] (setting [5]), the GI50 came to 2.2 ± 0.2 µM. For the same molecule, the GI50 in data set [1] (setting [6]) was 2.19 µM. Further, in data set [2], the viability at 10 µM is 86% and the GI50 is more than 20 µM. Further, the GI50 in data set [3] is more than 20 µM. For the same molecule, in data set [4], the viability at 10 µM came to 43% and the GI50 was 6 ± 0.1 µM.
With `COc1cc(-c2nc(N)nc(Nc3ccc(Br)cc3)n2)cc(OC)c1OC` [Compound 17, N ^2-(4-Bromophenyl)-6-(3,4,5-trimethoxyphenyl)-1,3,5-triazine-2,4-diamine], the melting point is 217 to 219 °C. Besides, the viability at 10 µM in data set [1] (72 h, MTT) was found to be 24%. The GI50 in data set [1] (setting [5]) amounted to 0.008 ± 0.0005 µM. Besides, the GI50 in data set [1] (setting [6]) was 0.00794 µM. In addition, in data set [2], the viability at 10 µM turned out to be 48% and the GI50 is more than 20 µM. Also, the GI50 in data set [3] is more than 20 µM. In data set [4], the viability at 10 µM came to 43% and the GI50 worked out at 0.17 ± 0.01 µM.
In turn, `COc1ccc(Nc2nc(N)nc(-c3cc(OC)c(OC)c(OC)c3)n2)cc1` [Compound 19, N ^2-(4-Methoxyphenyl)-6-(3,4,5-trimethoxyphenyl)-1,3,5-triazine-2,4-diamine] showed a melting point of 195 to 197 °C. For the same molecule, the viability at 10 µM in data set [1] (72 h, MTT) stood at 20%. For the same molecule, the GI50 in data set [1] (setting [5]) is 0.01 ± 0.001 µM. Besides, the GI50 in data set [1] (setting [6]) was 0.01 µM. Moreover, the “fold increase in antiproliferative activity over regioisomer” value in data set [1] (MDA-MB231, para- vs ortho-/meta-substituted ring B (13 vs 19, 14 vs 16, 15 vs 18)) amounted to 200 fold. For the same molecule, in data set [2], the viability at 10 µM came to 52% and the GI50 is more than 20 µM. Besides, the GI50 in data set [3] is more than 20 µM. Moreover, in data set [4], the viability at 10 µM came to 48% and the GI50 came out at 0.27 ± 0.02 µM.
As to `COc1cc(-c2nc(N)nc(Nc3ccc(OC(F)(F)F)cc3)n2)cc(OC)c1OC` [Compound 20, N ^2-(4-(Trifluoromethoxy)phenyl)-6-(3,4,5-trimethoxyphenyl)-1,3,5-triazine-2,4-diamine], the melting point is 179 to 181 °C. Also, the viability at 10 µM in data set [1] (72 h, MTT) worked out at 20%. Also, the GI50 in data set [1] (setting [5]) turned out to be 1.5 ± 0.1 µM. Moreover, the GI50 in data set [1] (setting [6]) is 1.48 µM. Moreover, in data set [2], the viability at 10 µM was 51% and the GI50 was more than 20 µM. Also, the GI50 in data set [3] is more than 20 µM. Further, in data set [4], the viability at 10 µM was determined as 45% and the GI50 was 5 ± 0.35 µM.

The values are drawn from PMC9055250, “Design, synthesis, and biological evaluation of new 6,N^2-diaryl-1,3,5-triazine-2,4-diamines as anticancer agents selectively targeting triple negative breast cancer cells” (RSC Advances, 2020).
